Patent US20150344457A1, “METHODS OF INHIBITING PRMT5” (EPIZYME, INC., priority 2012, published 2015)

How the values were obtained:
[1] = biological target: T1, PRMT5/MEP50 (Homo sapiens, UniProt O14744); experiment: PRMT5 Biochemical Assay (PRMT5/MEP50 enzyme assay on peptide substrate, 3H-SAM Flashplate); conditions: Table D-2; read-out: Biochemical IC50
T1 construct: Expressed full-length human Flag-PRMT5/6His-MeP50 protein complex was purified; made in house; host or cells: Spodoptera frugiperda (SF9) insect cells, baculovirus (pDEST8)
T1 sequence (O14744 with tags, fused parts or gaps): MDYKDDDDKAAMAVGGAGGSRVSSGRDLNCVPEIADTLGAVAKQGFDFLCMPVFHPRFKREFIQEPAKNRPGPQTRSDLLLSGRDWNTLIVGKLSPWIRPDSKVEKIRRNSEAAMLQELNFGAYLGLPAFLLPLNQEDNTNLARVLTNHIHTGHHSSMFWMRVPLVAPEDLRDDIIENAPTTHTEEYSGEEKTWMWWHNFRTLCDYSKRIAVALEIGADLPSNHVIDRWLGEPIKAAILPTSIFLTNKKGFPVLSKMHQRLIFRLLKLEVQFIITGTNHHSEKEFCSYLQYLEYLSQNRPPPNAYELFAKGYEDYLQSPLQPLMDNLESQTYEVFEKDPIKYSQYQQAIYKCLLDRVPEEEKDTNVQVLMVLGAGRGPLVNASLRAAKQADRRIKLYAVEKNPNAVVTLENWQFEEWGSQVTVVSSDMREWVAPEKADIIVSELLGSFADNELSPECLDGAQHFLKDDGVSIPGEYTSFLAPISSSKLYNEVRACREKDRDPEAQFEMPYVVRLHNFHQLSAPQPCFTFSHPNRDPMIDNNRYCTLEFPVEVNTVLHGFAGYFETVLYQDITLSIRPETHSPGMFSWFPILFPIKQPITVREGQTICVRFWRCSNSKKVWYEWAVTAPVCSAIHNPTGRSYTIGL
T1 sequence (Q9BQA1 with tags, fused parts or gaps partner limits assumed): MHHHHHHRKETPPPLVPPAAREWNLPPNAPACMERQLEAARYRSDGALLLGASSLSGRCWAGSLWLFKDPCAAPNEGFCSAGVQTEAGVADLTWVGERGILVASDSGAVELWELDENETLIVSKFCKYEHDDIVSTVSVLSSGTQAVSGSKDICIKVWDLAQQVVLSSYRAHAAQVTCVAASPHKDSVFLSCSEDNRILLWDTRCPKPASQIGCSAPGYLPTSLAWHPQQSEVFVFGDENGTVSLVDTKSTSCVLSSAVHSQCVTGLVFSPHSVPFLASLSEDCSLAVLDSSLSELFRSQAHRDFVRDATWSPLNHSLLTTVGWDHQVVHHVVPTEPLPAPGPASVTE

[2] = test system: Z-138 cells; experiment: Z-138 Proliferation Assay (Cell Titer Glo, 5 days); assay type: cell-based; conditions: Homo sapiens, Table D-2
Summary of the method: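 Exponentially growing Z-138 cells (10,000 cells/ml) in RPMI 1640 with 10% FBS are exposed to nine-point 3-fold dilutions (final top concentration 20 μM, 0.2% DMSO) for 5 days at 37° C. Viability is measured as ATP by CellTiter-Glo luminescence. The 50% inhibitory concentration comes from a 4-parameter fit.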

SMILES | IC50 [1] [µM] | EC50 [2] [µM]
O=C(c1ccc(Cn2nccc2-c2ccc(OCC(O)CN3CCc4ccccc4C3)cc2)cc1)N1CCCC1 (stereo not shown) [Compound D31] | 0.101 to 1 | 10 to 40
COC(COc1cccc(CNC2CCCC2)c1)CN1CCc2ccccc2C1 (stereo not shown) [Compound D32] | 1 to 10 | > 40
OC(CNc1cccc(CNC2CCCC2)c1)CN1CCc2ccccc2C1 (stereo not shown) [Compound D39] | 0.101 to 1 | > 20
OC(COc1cccc(-c2ccccc2)c1)CN1CCc2ccccc2C1 (stereo not shown) [Compound D43] | 0.101 to 1 | > 20
CC(Oc1cccc(CNC2CCCC2)c1)C(O)CN1CCc2ccccc2C1 (stereo not shown) [Compound D49] | 0.101 to 1 | 1 to 10
Cn1cnc2cc(-c3cccc(OCC(O)CN4CCc5ccccc5C4)c3)ccc21 (stereo not shown) [Compound D60] | 0.101 to 1 | 10 to 40
OC(COc1cccc(-c2cc(C(F)(F)F)ccc2Cl)c1)CN1CCc2ccccc2C1 (stereo not shown) [Compound D62] | 0.101 to 1 | 10 to 40
CS(=O)(=O)c1ccc(-c2cccc(OCC(O)CN3CCc4ccccc4C3)c2)cc1 (stereo not shown) [Compound D63] | 0.101 to 1 | 10 to 40
OC(COc1cccc(-c2cccc3cccnc23)c1)CN1CCc2ccccc2C1 (stereo not shown) [Compound D65] | < 0.1 | 10 to 40
CC(=O)c1cccc(-c2cccc(OCC(O)CN3CCc4ccccc4C3)c2)c1 (stereo not shown) [Compound D67] | 0.101 to 1 | 10 to 40
OC(COc1cccc(-c2cccc(F)c2F)c1)CN1CCc2ccccc2C1 (stereo not shown) [Compound D68] | 0.101 to 1 | 10 to 40
OCc1cccc(-c2cccc(OCC(O)CN3CCc4ccccc4C3)c2)c1 (stereo not shown) [Compound D72] | 0.101 to 1 | 10 to 40
COc1ccc(-c2cccc(OCC(O)CN3CCc4ccccc4C3)c2)cc1 (stereo not shown) [Compound D75] | 0.101 to 1 | 10 to 40
CC1c2ccccc2CCN1CC(O)COc1cccc(-c2ccc3ncn(C)c3c2)c1 (stereo not shown) [Compound D80] | 0.101 to 1 | 1 to 10
OC(COc1cccc(-c2ccc3nc[nH]c3c2)c1)CN1CCc2ccccc2C1 (stereo not shown) [Compound D83] | 0.101 to 1 | 10 to 40
OC(COc1cccc(-c2cccc3c2oc2ccccc23)c1)CN1CCc2ccccc2C1 (stereo not shown) [Compound D86] | 0.101 to 1 | 10 to 40
OC(COc1cccc(-c2cnc3ccccc3c2)c1)CN1CCc2ccccc2C1 (stereo not shown) [Compound D89] | 0.101 to 1 | 10 to 40
COc1ccc(-c2cccc(OCC(O)CN3CCc4ccccc4C3)c2)c(C)c1 (stereo not shown) [Compound D90] | 0.101 to 1 | 10 to 40
OC(COc1cccc(-c2ccc3ncn(C4CNC4)c3c2)c1)CN1CCc2ccccc2C1 (stereo not shown) [Compound D208] | 0.101 to 1 | 1 to 10

SMILES | IC50 [1] [µM] | EC50 [2] [µM]
OC(COc1cccc(-c2ccc3ncn(C4CCNC4)c3c2)c1)CN1CCc2ccccc2C1 (stereo not shown) [Compound D209] | < 0.1 | 1 to 10
Cn1cc2ccc(-c3cccc(OCC(O)CN4CCc5ccccc5C4)c3)nc2n1 (stereo not shown) [Compound D210] | < 0.1 | 10 to 40
Cn1cnc2ccc(-c3cc(NCC(O)CN4CCc5ccccc5C4)ccn3)cc21 (stereo not shown) [Compound D217] | 0.101 to 1 | 10 to 40
CN1CC(n2cnc3ccc(-c4cccc(OCC(O)CN5CCc6ccccc6C5)c4)cc32)C1 (stereo not shown) [Compound D218] | < 0.1 | 1 to 10
OC(COc1cccc(-c2ccc3ncn(C4CCNCC4)c3c2)c1)CN1CCc2ccccc2C1 (stereo not shown) [Compound D220] | < 0.1 | 1 to 10
CN1CCC(n2cnc3ccc(-c4cccc(OCC(O)CN5CCc6ccccc6C5)c4)cc32)CC1 (stereo not shown) [Compound D221] | < 0.1 | 1 to 10
OC(COc1cccc(-c2cccc3[nH]cnc23)c1)CN1CCc2ccccc2C1 (stereo not shown) [Compound D223] | < 0.1 | 10 to 40
O=C(Cn1ccc2cnc(-c3ccnc(NCC(O)CN4CCc5ccccc5C4)c3)nc21)N1CCOCC1 (stereo not shown) [Compound D234] | < 0.1 | 0.101 to 1
Cn1cc2ccc(-c3ccnc(NCC(O)CN4CCc5ccccc5C4)c3)cc2n1 (stereo not shown) [Compound D236] | < 0.1 | 1 to 10
OC(CNc1cc(-c2ccc3ncn(C4CCNC4)c3c2)ccn1)CN1CCc2ccccc2C1 (stereo not shown) [Compound D240] | < 0.1 | 1 to 10
OC(CNc1cc(-c2ccc3ncn(C4CCNCC4)c3c2)ccn1)CN1CCc2ccccc2C1 (stereo not shown) [Compound D241] | < 0.1 | 1 to 10
CN1CCN(C(=O)Cn2ccc3cnc(-c4cccc(OCC(O)CN5CCc6ccccc6C5)c4)nc32)CC1 (stereo not shown) [Compound D244] | 0.101 to 1 | 10 to 40
CNC(=O)Cn1ccc2cnc(-c3ccnc(NCC(O)CN4CCc5ccccc5C4)c3)nc21 (stereo not shown) [Compound D245] | < 0.1 | 1 to 10
O=C(Cn1cnc2ccc(-c3cccc(OCC(O)CN4CCc5ccccc5C4)c3)cc21)N1CCCCC1 (stereo not shown) [Compound D249] | 0.101 to 1 | 10 to 40
OC(CNc1cc(-c2ccc3ncn(C4CCOCC4)c3c2)ccn1)CN1CCc2ccccc2C1 (stereo not shown) [Compound D251] | < 0.1 | 1 to 10
CN1CCC(n2cnc3ccc(-c4ccnc(NCC(O)CN5CCc6ccccc6C5)c4)cc32)CC1 (stereo not shown) [Compound D252] | < 0.1 | 1 to 10
OC(COc1cccc(-c2ncc3ccn(C4CCNCC4)c3n2)c1)CN1CCc2ccccc2C1 (stereo not shown) [Compound D253] | < 0.1 | 1 to 10
OC(CNc1cc(-c2ncc3ccn(C4CNC4)c3n2)ccn1)CN1CCc2ccccc2C1 (stereo not shown) [Compound D254] | < 0.1 | 1 to 10

More lines, main results first:

IC50 [1] [µM] | SMILES | EC50 [2] [µM]
< 0.1 | Cn1cnc2ccc(-c3cccc(OCC(O)CN4CCc5ccccc5C4)c3)cc21 (stereo not shown) [Compound D45] | 1 to 10
< 0.1 | OC(COc1ccc(C2CCCNC2)cc1)CN1CCc2ccccc2C1 (stereo not shown) [Compound D47] | 1 to 10
0.101 to 1 | CN(CC(O)CN1CCc2ccccc2C1)c1cccc(CNC2CCCC2)c1 (stereo not shown) [Compound D53] | 10 to 40
0.101 to 1 | OC(COc1cccc(-c2ccc3cn[nH]c3c2)c1)CN1CCc2ccccc2C1 (stereo not shown) [Compound D58] | 10 to 40
0.101 to 1 | OC(COc1cccc(-c2ccc3c(c2)OCO3)c1)CN1CCc2ccccc2C1 (stereo not shown) [Compound D59] | 10 to 40
0.101 to 1 | COc1cccc(-c2cccc(OCC(O)CN3CCc4ccccc4C3)c2)c1 (stereo not shown) [Compound D74] | 10 to 40
0.101 to 1 | CC(C)n1cnc2ccc(-c3cccc(OCC(O)CN4CCc5ccccc5C4)c3)cc21 (stereo not shown) [Compound D81] | 10 to 40
0.101 to 1 | COc1ccc(Cn2cnc3ccc(-c4cccc(OCC(O)CN5CCc6ccccc6C5)c4)cc32)cc1 (stereo not shown) [Compound D82] | 10 to 40
0.101 to 1 | OC(COc1cccc(-c2ccc3nn[nH]c3c2)c1)CN1CCc2ccccc2C1 (stereo not shown) [Compound D84] | 1 to 10
0.101 to 1 | OC(COc1cccc(-c2ccc3c(c2)OCCO3)c1)CN1CCc2ccccc2C1 (stereo not shown) [Compound D85] | 10 to 40
0.101 to 1 | COc1ccc(-c2cccc(OCC(O)CN3CCc4ccccc4C3)c2)c(Cl)c1 (stereo not shown) [Compound D88] | 10 to 40
0.101 to 1 | OC(COc1cccc(-c2ccccc2Cl)c1)CN1CCc2ccccc2C1 (stereo not shown) [Compound D92] | 10 to 40
0.101 to 1 | Cn1ncc2c1CN(c1cccc(OCC(O)CN3CCc4ccccc4C3)c1)CC2 (stereo not shown) [Compound D216] | > 20
< 0.1 | CN1CCC(n2cnc3ccc(-c4cccc(OCC(O)CN5CCc6ccccc6C5)c4)cc32)C1 (stereo not shown) [Compound D219] | 1 to 10
0.101 to 1 | O=C(Cn1ccc2cnc(-c3cccc(OCC(O)CN4CCc5ccccc5C4)c3)nc21)N1CCOCC1 (stereo not shown) [Compound D222] | 10 to 40
0.101 to 1 | Cn1cc2ccc(-c3cc(NCC(O)CN4CCc5ccccc5C4)ncn3)cc2n1 (stereo not shown) [Compound D224] | > 20
< 0.1 | Cn1ncc2ccc(-c3ccnc(NCC(O)CN4CCc5ccccc5C4)c3)cc21 (stereo not shown) [Compound D226] | 1 to 10
< 0.1 | O=C(Cn1ccc2cnc(-c3ccnc(NCC(O)CN4CCc5ccccc5C4)c3)nc21)N1CCCC1 (stereo not shown) [Compound D233] | 1 to 10
0.101 to 1 | OC(CNc1cccc(-c2cccc3[nH]cnc23)c1)CN1CCc2ccccc2C1 (stereo not shown) [Compound D235] | 10 to 40
0.101 to 1 | Cn1ccc2ccc(-c3cc(NCC(O)CN4CCc5ccccc5C4)ncn3)cc21 (stereo not shown) [Compound D237] | 10 to 40
< 0.1 | Cn1cnc2ccc(-c3ccnc(NCC(O)CN4CCc5ccccc5C4)c3)nc21 (stereo not shown) [Compound D238] | 1 to 10
< 0.1 | Cn1ccc2cnc(-c3ccnc(NCC(O)CN4CCc5ccccc5C4)c3)nc21 (stereo not shown) [Compound D239] | 1 to 10
0.101 to 1 | CC(=O)N1CCC(n2cnc3ccc(-c4ccnc(NCC(O)CN5CCc6ccccc6C5)c4)cc32)CC1 (stereo not shown) [Compound D242] | 1 to 10
0.101 to 1 | CC(=O)N1CCC(n2ccc3cnc(-c4cccc(OCC(O)CN5CCc6ccccc6C5)c4)nc32)CC1 (stereo not shown) [Compound D243] | 1 to 10
< 0.1 | O=C(Cn1ccc2cnc(-c3ccnc(NCC(O)CN4CCc5ccccc5C4)c3)nc21)N1CCCCC1 (stereo not shown) [Compound D246] | 0.101 to 1
< 0.1 | CN1CCN(C(=O)Cn2ccc3cnc(-c4ccnc(NCC(O)CN5CCc6ccccc6C5)c4)nc32)CC1 (stereo not shown) [Compound D247] | 1 to 10
0.101 to 1 | Cn1ncc2cnc(-c3cccc(OCC(O)CN4CCc5ccccc5C4)c3)cc21 (stereo not shown) [Compound D248] | 10 to 40
< 0.1 | CN1CCC(n2cnc3ccc(-c4ccnc(NCC(O)CN5CCc6ccccc6C5)c4)cc32)C1 (stereo not shown) [Compound D250] | 1 to 10
